Experimental data as given in patent US10233192B2, “Derivatives of uncialamycin, methods of synthesis and their use as antitumor agents” (priority 2013, dated 2019).
Read-outs that look alike come from different tables or passages of the source.

Columns and labels:
[1] = tested on: N87 cell line; assay: ATP luminescence (CellTiter-Glo) cell viability assay, N87; format: cell-based; settings: 72 h, read-out: EC50 (nM) N87
Method: (§1) An ATP luminescence assay was used, the procedure being as follows: Cells were seeded at 1×10^3 cells/well in 96-well plates for 3 h for ATP CellTiter^Glo™ assays, respectively. Serial dilutions (1:3) of compounds were added to the wells. Plates were allowed to incubate for 72 h. A CellTiter^Glo™ cell viability kit from Promega was used to measure ATP content of cells treated with compounds following manufacturer's instruction. A decrease in the ATP content is a measure of decrease in cellular viability. The EC50 value—the concentration at which an agent reduces cell viability by 50% of the maximum effect—was determined using PRISM™ software, version 5.0 (GraphPad Software, La Jolla, Calif., USA).
(§2) The compounds were tested against ADR, a multi-drug resistant breast cancer cell line as well as the H226, N87, and OVCAR3 cell lines.

[2] = tested on: OVCAR3 cell line; assay: ATP luminescence (CellTiter-Glo) cell viability assay, OVCAR3; format: cell-based; settings: Homo sapiens, read-out: EC50 (nM) OVCAR3
Method: as §1, §2

[3] = tested on: H226 cell line; assay: ATP luminescence (CellTiter-Glo) cell viability assay, H226; format: cell-based; settings: Homo sapiens, read-out: EC50 (nM) H226
Method: as §1, §2

[4] = tested on: ADR multi-drug resistant breast cancer cell line; assay: ATP luminescence (CellTiter-Glo) cell viability assay, ADR; format: cell-based; settings: 72 h, read-out: EC50 (nM) ADR
Method: as §1, §2

[5] = tested on: cancer cells; settings: antitumor activity, Nicolaou et al. 2007, 2008; cited from earlier work
[6] = Chemical stability observed on preparation and storage; format: physicochemical; settings: observation on handling and storage; both acid- and base-sensitive, slowly decomposed at −78° C
[7] = OVCAR-3, OVCAR3, 72 h, ATP content
[8] = NCI-H226, H226, 72 h, ATP content
[9] = ADR multidrug resistant breast cancer cell line, ATP content

Row | SMILES | EC50 ([1]; N87, ATP content) | EC50 [2, 7] | EC50 [3, 8] | EC50 [4, 9] | stability [6] | other results
1 | COc1cc2c(c(OC)c1CN)C(=O)c1c(O)cc3c(c1C2=O)N[C@H]1C#C/C=C\C#C[C@@H](O)[C@@]32O[C@@]12[C@@H](C)O | 0.15 nM | 0.4 nM | 0.077 nM | 0.34 nM | – | –
2 | C[C@@H](O)[C@@]12O[C@]13c1cc(O)c4c(c1N[C@H]2C#C/C=C\C#C[C@H]3O)C(=O)c1ccccc1C4=O [Compound 26a, Uncialamycin] | 1.8 nM | 4.7 nM | 1.8 nM | 0.39 nM | – | melting point: 175 °C (dec.); IC50 [5]: picomolar
3 | C[C@@H](O)[C@@]12O[C@]13c1cc(O)c4c(c1N[C@H]2C#C/C=C\C#C[C@H]3O)C(=O)c1ccc(N)cc1C4=O [Compound 36a, 8-Amino-uncialamycin, reference compound] | 2.7 nM | 7.4 nM | 2.4 nM | 0.67 nM | – | –
4 | C[C@@H](O)[C@@]12O[C@]13c1cc(O)c4c(c1N[C@H]2C#C/C=C\C#C[C@H]3O)C(=O)c1ccc(CN)cc1C4=O [Compound 48aa, 8-Aminomethyl-uncialamycin] | 0.011 nM | 0.32 nM | 0.028 nM | 0.02 nM | extremely unstable | –
5 | C[C@@H](O)[C@@]12O[C@]13c1cc(O)c4c(c1N[C@H]2C#C/C=C\C#C[C@@H]3O)C(=O)c1ccc(CN)cc1C4=O [Compound 48ab] | 0.023 nM | 0.28 nM | 0.051 nM | 0.054 nM | – | –
6 | C[C@@H](O)[C@@]12O[C@]13c1cc(O)c4c(c1N[C@H]2C#C/C=C\C#C[C@H]3O)C(=O)c1cc(CN)ccc1C4=O [Compound 48ba, 7-Aminomethyl-uncialamycin] | 0.01 nM | 0.066 nM | 0.012 nM | 0.029 nM | extremely unstable | –
7 | C[C@@H](O)[C@@]12O[C@]13c1cc(O)c4c(c1N[C@H]2C#C/C=C\C#C[C@H]3O)C(=O)c1c(CN)cccc1C4=O [Compound 48ca, 6-Aminomethyl-uncialamycin] | – | – | – | – | extremely unstable | –
8 | C[C@@H](O)[C@@]12O[C@]13c1cc(O)c4c(c1N[C@H]2C#C/C=C\C#C[C@H]3O)C(=O)c1cccc(CN)c1C4=O [Compound 48da, 9-Aminomethyl-uncialamycin] | – | – | – | – | extremely unstable | –
9 | C[C@@H](O)[C@@]12O[C@]13c1cc(O)c4c(c1N[C@H]2C#C/C=C\C#C[C@H]3O)C(=O)c1cc2c(cc1C4=O)CNC2 [Compound 97, Isoindoline-uncialamycin 97] | – | – | – | – | extremely unstable | –
10 | CNCc1ccc2c(c1)C(=O)c1c(O)cc3c(c1C2=O)N[C@H]1C#C/C=C\C#C[C@@H](O)[C@@]32O[C@@]12[C@@H](C)O [Compound 108, N-methyl-8-aminomethyl-uncialamycin 108] | – | – | – | – | extremely unstable | –
11 | C=CCOC(=O)N1c2c(cc(O)c3c2C(=O)c2ccc(CN)cc2C3=O)[C@@]23O[C@@]2([C@@H](C)O[Si](CC)(CC)CC)[C@@H]1C#C/C=C\C#C[C@H]3O [Compound 111] | – | – | – | – | much more stable than 48aa | –
12 | CC(C)[C@H](NC(=O)CCCCCN1C(=O)C=CC1=O)C(=O)N[C@@H](CCCNC(N)=O)C(=O)Nc1ccc(COC(=O)NCc2ccc3c(c2)C(=O)c2c(O)cc4c(c2C3=O)N[C@H]2C#C/C=C\C#C[C@@H](O)[C@@]43O[C@@]23[C@@H](C)O)cc1 [Compound 116] | – | – | – | – | – | EC50 [1]: 8.7 nM; EC50 ([2]; OVCAR-3, 72 h): 16 nM; EC50 ([3]; NCI-H226, 72 h): 4.2 nM; EC50 [4]: 3.3 nM
